Source: patent publication US9604961B2, “Histone demethylase inhibitors” (Celgene Quanticel Research, Inc., priority 2012, dated 2017)

Tests used:
Format in all cases: biochemical
[1] = biological target: Jarid1A (Homo sapiens (Human), UniProt P29375); assay: Jarid1A in vitro enzyme inhibition assay (TR-FRET)
Source text: The enzymatic assay of Jarid1A activity is based upon Time Resolved-Fluorescence Resonance Energy Transfer (TR-FRET) detection.

[2] = biological target: Jarid1B (Homo sapiens (Human), UniProt Q9UGL1); assay: Jarid1B in vitro enzyme inhibition assay (TR-FRET)
Experimental: This assay determines the ability of a test compound to inhibit Jarid1A, Jarid1B, JMJD2C, and JMJD2A demethylase activity.
The ability of test compounds to inhibit the activity of Jarid1B was determined in 384-well plate format under the following reaction conditions: 0.8 nM Jarid1B, 300 nM H3K4me3-biotin labeled peptide (Anaspec cat #64357), 2 μM alpha-ketoglutaric acid in assay buffer of 50 mM HEPES, pH7.3, 0.005% Brij35, 0.5 mM TCEP, 0.2 mg/ml BSA, 50 μM sodium L-ascorbate, and 2 μM ammonium iron(II) sulfate. Reaction product was determined quantitatively by TR-FRET after the addition of detection reagent Phycolink Streptavidin-allophycocyanin (Prozyme) and Europium-anti-mono- or di-methylated histone H3 lysine 4 (H3K4me1-2) antibody (PerkinElmer) in the presence of 5 mM EDTA in LANCE detection buffer (PerkinElmer) at a final concentration of 25 nM and 1 nM, respectively.
The assay reaction was initiated by the following: 2 μl of the mixture of 900 nM H3K4me3-biotin labeled peptide and 6 μM alpha-ketoglutaric acid with 2 μl of 11-point serial diluted inhibitor in 3% DMSO was added to each well of the plate, followed by the addition of 2 μl of 2.4 nM Jarid1B to initiate the reaction. The reaction mixture was incubated at room temperature for 30 minutes, and terminated by the addition of 6 μl of 5 mM EDTA in LANCE detection buffer containing 50 nM Phycolink Streptavidin-allophycocyanin and 2 nM Europium-anti-H3K4me1-2 antibody. Plates were read by EnVisionMultilabel Reader in TR-FRET mode (excitation at 320 nm, emission at 615 nm and 665 nm) after 1 hour incubation at room temperature. A ratio was calculated (665/615) for each well and fitted to determine inhibition constant (IC50).

[3] = biological target: JMJD2C (Homo sapiens (Human), UniProt Q9H3R0); assay: JMJD2C in vitro enzyme inhibition assay (TR-FRET)
Sequence of JMJD2C (Q9H3R0 2-372): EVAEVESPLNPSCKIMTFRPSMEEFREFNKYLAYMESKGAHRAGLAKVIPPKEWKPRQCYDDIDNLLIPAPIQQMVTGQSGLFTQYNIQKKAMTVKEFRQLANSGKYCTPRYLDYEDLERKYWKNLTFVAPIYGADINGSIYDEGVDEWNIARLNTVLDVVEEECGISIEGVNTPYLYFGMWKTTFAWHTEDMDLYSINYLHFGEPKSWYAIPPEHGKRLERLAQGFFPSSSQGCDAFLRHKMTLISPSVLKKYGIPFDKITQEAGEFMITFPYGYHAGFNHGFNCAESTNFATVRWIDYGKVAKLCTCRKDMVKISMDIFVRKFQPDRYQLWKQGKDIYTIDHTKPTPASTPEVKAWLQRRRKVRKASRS
Experimental: Baculovirus expressed JMJD2C (GenBank Accession #BC143571, AA 2-372) was purchased from BPS Bioscience (Cat#50105).
The ability of test compounds to inhibit the activity of JMJD2C was determined in 384-well plate format under the following reaction conditions: 0.3 nM JMJD2C, 300 nM H3K9me3-biotin labeled peptide (Anaspec cat #64360), 2 μM alpha-ketoglutaric acid in assay buffer of 50 mM HEPES, pH7.3, 0.005% Brij35, 0.5 mM TCEP, 0.2 mg/ml BSA, 50 μM sodium L-ascorbate, and 2 μM ammonium iron(II) sulfate. Reaction product was determined quantitatively by TR-FRET after the addition of detection reagent Phycolink Streptavidin-allophycocyanin (Prozyme) and Europium-anti-di-methylated histone H3 lysine 9 (H3K9me2) antibody (PerkinElmer) in the presence of 5 mM EDTA in LANCE detection buffer (PerkinElmer) at a final concentration of 50 nM and 1 nM, respectively.
The assay reaction was initiated by the following: 2 μl of the mixture of 900 nM H3K9me3-biotin labeled peptide and 6 μM alpha-ketoglutaric acid with 2 μl of 11-point serial diluted inhibitor in 3% DMSO were added to each well of the plate, followed by the addition of 2 μl of 0.9 nM JMJD2C to initiate the reaction. The reaction mixture was incubated at room temperature for 30 minutes, and terminated by the addition of 6 μl of 5 mM EDTA in LANCE detection buffer containing 100 nM Phycolink Streptavidin-allophycocyanin and 2 nM Europium-anti-H3K9me2 antibody. Plates were read by EnVisionMultilabel Reader in TR-FRET mode (excitation at 320 nm, emission at 615 nm and 665 nm) after 1 hour incubation at room temperature. A ratio was calculated (665/615) for each well and fitted to determine inhibition constant (IC50).

Sequence of Jarid1B (Q9UGL1 2-751): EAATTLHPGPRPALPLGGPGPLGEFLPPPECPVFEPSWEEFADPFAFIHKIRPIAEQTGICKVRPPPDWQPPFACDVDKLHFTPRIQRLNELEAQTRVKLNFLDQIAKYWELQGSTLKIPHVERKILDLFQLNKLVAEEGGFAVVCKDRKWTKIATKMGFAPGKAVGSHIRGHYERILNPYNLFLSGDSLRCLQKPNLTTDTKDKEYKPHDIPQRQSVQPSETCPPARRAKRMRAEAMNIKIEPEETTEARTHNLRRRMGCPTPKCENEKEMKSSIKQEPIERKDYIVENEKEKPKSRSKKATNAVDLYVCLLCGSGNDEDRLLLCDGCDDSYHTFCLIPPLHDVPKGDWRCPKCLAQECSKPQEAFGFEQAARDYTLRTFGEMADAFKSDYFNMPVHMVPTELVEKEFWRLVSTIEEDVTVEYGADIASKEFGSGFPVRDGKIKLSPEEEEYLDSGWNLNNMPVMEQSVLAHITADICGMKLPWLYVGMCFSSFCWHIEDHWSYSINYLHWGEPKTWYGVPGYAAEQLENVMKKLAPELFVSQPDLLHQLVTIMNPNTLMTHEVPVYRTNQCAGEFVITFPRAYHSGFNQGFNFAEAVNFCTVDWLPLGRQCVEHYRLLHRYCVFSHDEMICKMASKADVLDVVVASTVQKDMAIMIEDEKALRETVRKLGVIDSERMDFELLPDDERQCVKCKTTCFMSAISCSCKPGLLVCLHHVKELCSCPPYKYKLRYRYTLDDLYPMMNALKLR
Sequence of Jarid1A (P29375 1-1090): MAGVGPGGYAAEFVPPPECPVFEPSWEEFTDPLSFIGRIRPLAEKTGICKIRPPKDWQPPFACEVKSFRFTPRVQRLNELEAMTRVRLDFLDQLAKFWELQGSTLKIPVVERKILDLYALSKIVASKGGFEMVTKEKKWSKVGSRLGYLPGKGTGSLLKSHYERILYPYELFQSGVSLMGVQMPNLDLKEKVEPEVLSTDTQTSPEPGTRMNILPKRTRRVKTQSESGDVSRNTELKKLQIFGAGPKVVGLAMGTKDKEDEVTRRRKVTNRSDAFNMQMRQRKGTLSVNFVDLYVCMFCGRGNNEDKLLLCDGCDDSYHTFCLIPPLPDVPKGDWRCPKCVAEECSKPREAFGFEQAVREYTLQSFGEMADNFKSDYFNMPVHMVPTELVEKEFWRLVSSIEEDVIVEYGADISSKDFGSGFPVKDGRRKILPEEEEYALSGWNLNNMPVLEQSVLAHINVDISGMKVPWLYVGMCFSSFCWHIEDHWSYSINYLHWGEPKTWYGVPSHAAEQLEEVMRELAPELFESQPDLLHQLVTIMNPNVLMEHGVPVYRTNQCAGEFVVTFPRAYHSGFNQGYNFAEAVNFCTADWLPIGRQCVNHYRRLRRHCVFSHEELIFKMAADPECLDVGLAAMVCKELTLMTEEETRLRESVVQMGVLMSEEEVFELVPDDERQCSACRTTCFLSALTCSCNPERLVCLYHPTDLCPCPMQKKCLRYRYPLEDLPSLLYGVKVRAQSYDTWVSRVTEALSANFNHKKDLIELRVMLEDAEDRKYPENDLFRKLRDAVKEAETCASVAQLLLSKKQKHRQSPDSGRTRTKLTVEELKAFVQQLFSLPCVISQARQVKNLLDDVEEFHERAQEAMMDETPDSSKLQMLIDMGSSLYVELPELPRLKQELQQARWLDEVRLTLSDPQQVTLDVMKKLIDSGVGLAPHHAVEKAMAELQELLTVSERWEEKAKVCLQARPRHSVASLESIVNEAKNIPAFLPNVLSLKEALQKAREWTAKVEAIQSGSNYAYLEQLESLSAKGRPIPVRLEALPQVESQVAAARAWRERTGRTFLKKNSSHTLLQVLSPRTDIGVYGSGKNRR

Row | Compound | IC50 [1] | IC50 [2] | IC50 [3]
1 | CC(Oc1ccnn1-c1cc(C(=O)O)ccn1)c1ccc(F)cc1 (stereo not drawn) [Example 82, 2-[5-[1-(4-fluorophenyl)ethoxy]pyrazol-1-yl]pyridine-4-carboxylic acid] | < 100 nM | < 100 nM | 100 to 1000 nM
2 | O=C(O)c1ccnc(-n2nccc2OCC2CC(F)(F)C2)c1 [Example 83, 2-[5-[(3,3-difluorocyclobutyl)methoxy]pyrazol-1-yl]pyridine-4-carboxylic acid] | < 100 nM | < 100 nM | < 100 nM
3 | Cc1cnn(-c2cc(C(=O)O)ccn2)c1OCc1ccc(F)cc1 [Example 84, 2-[5-[(4-fluorophenyl)methoxy]-4-methylpyrazol-1-yl]pyridine-4-carboxylic acid] | < 100 nM | < 100 nM | 100 to 1000 nM
4 | CCc1cnn(-c2cc(C(=O)O)ccn2)c1OCc1ccc(F)cc1 [Example 85, 2-[4-ethyl-5-[(4-fluorophenyl)methoxy]pyrazol-1-yl]pyridine-4-carboxylic acid] | < 100 nM | < 100 nM | 100 to 1000 nM
5 | O=C(O)c1ccnc(-n2nccc2OCc2ccc(F)cc2F)c1 [Example 86, 2-[5-[(2,4-difluorophenyl)methoxy]pyrazol-1-yl]pyridine-4-carboxylic acid] | < 100 nM | < 100 nM | 100 to 1000 nM
6 | O=C(O)c1ccnc(-n2nccc2OCc2ccc(Cl)cc2Cl)c1 [Example 88, 2-[5-[(2,4-dichlorophenyl)methoxy]pyrazol-1-yl]pyridine-4-carboxylic acid] | < 100 nM | < 100 nM | 100 to 1000 nM
7 | COc1cc(Cl)ccc1COc1ccnn1-c1cc(C(=O)O)ccn1 [Example 90, 2-[5-[(4-chloro-2-methoxyphenyl)methoxy]pyrazol-1-yl]pyridine-4-carboxylic acid] | < 100 nM | < 100 nM | < 100 nM
8 | O=C(O)c1ccnc(-n2nccc2OCc2ccc(Cl)c(C(F)(F)F)c2)c1 [Example 91, 2-[5-[[4-chloro-3-(trifluoromethyl)phenyl]methoxy]pyrazol-1-yl]pyridine-4-carboxylic acid] | < 100 nM | < 100 nM | 100 to 1000 nM
9 | Cc1ccc(COc2ccnn2-c2cc(C(=O)O)ccn2)cc1F [Example 93, 2-[5-[(3-fluoro-4-methylphenyl)methoxy]pyrazol-1-yl]pyridine-4-carboxylic acid] | < 100 nM | < 100 nM | < 100 nM
10 | Cc1ccc(COc2ccnn2-c2cc(C(=O)O)ccn2)c(F)c1F [Example 94, 2-[5-[(2,3-difluoro-4-methylphenyl)methoxy]pyrazol-1-yl]pyridine-4-carboxylic acid] | < 100 nM | < 100 nM | < 100 nM
11 | CCc1ccc(COc2ccnn2-c2cc(C(=O)O)ccn2)cc1Cl [Example 95, 2-[5-[(3-chloro-4-ethylphenyl)methoxy]pyrazol-1-yl]pyridine-4-carboxylic acid] | < 100 nM | < 100 nM | 100 to 1000 nM
12 | CCc1ccc(COc2ccnn2-c2cc(C(=O)O)ccn2)cc1F [Example 96, 2-[5-[(4-ethyl-3-fluorophenyl)methoxy]pyrazol-1-yl]pyridine-4-carboxylic acid] | < 100 nM | < 100 nM | 100 to 1000 nM
13 | N#Cc1cccc(COc2ccnn2-c2cc(C(=O)O)ccn2)c1 [Example 97, 2-[5-[(3-cyanophenyl)methoxy]pyrazol-1-yl]pyridine-4-carboxylic acid] | < 100 nM | < 100 nM | < 100 nM
14 | O=C(O)c1ccnc(-n2ncc(CCO)c2OCc2ccc(F)cc2)c1 [Example 109, 2-[5-[(4-fluorophenyl)methoxy]-4-(2-hydroxyethyl)pyrazol-1-yl]pyridine-4-carboxylic acid] | < 100 nM | < 100 nM | 1000 to 10000 nM
15 | CN(C)CCc1cnn(-c2cc(C(=O)O)ccn2)c1OCc1ccc(F)cc1 [Example 110, 2-[4-[2-(dimethylamino)ethyl]-5-[(4-fluorophenyl)methoxy]pyrazol-1-yl]pyridine-4-carboxylic acid] | < 100 nM | < 100 nM | 100 to 1000 nM
16 | CC(C)Oc1cc(Cl)ccc1COc1ccnn1-c1cc(C(=O)O)ccn1 [Example 113, 2-[5-[(4-chloro-2-propan-2-yloxyphenyl)methoxy]pyrazol-1-yl]pyridine-4-carboxylic acid] | 100 to 1000 nM | 100 to 1000 nM | 1000 to 10000 nM
17 | CCC(C)Oc1cc(Cl)ccc1COc1ccnn1-c1cc(C(=O)O)ccn1 (stereo not drawn) [Example 114, 2-[5-[(2-butan-2-yloxy-4-chlorophenyl)methoxy]pyrazol-1-yl]pyridine-4-carboxylic acid] | 100 to 1000 nM | 100 to 1000 nM | 1000 to 10000 nM

Row | Compound | IC50 [1] | IC50 [2] | IC50 [3]
18 | COCCOc1cc(Cl)ccc1COc1ccnn1-c1cc(C(=O)O)ccn1 [Example 116, 2-[5-[[4-chloro-2-(2-methoxyethoxy)phenyl]methoxy]pyrazol-1-yl]pyridine-4-carboxylic acid] | < 100 nM | < 100 nM | 100 to 1000 nM
19 | O=C(O)c1ccnc(-n2nccc2OCc2ccc(F)cc2/C=C/c2ccc(F)cc2)c1 [Example 119, 2-[5-[[4-fluoro-2-[(E)-2-(4-fluorophenyl)ethenyl]phenyl]methoxy]pyrazol-1-yl]pyridine-4-carboxylic acid] | 100 to 1000 nM | 100 to 1000 nM | 1000 to 10000 nM
20 | O=C(O)c1ccnc(-n2nccc2OCc2ccc(Cl)cc2/C=C/c2ccc(F)cc2)c1 [Example 120, 2-[5-[[4-chloro-2-[(E)-2-(4-fluorophenyl)ethenyl]phenyl]methoxy]pyrazol-1-yl]pyridine-4-carboxylic acid] | 100 to 1000 nM | 100 to 1000 nM | 1000 to 10000 nM
21 | O=C(O)c1ccnc(-n2nccc2OCc2ccc(F)cc2CCc2ccc(F)cc2)c1 [Example 121, 2-[5-[[4-fluoro-2-[2-(4-fluorophenyl)ethyl]phenyl]methoxy]pyrazol-1-yl]pyridine-4-carboxylic acid] | 100 to 1000 nM | 100 to 1000 nM | 1000 to 10000 nM
22 | O=C(O)c1ccnc(-n2nccc2OCc2ccc(Cl)cc2CCc2ccc(F)cc2)c1 [Example 122, 2-[5-[[4-chloro-2-[2-(4-fluorophenyl)ethyl]phenyl]methoxy]pyrazol-1-yl]pyridine-4-carboxylic acid] | 100 to 1000 nM | 100 to 1000 nM | 1000 to 10000 nM
23 | O=C(O)c1ccnc(-n2nccc2OCc2cccc3c2OCC3)c1 [Example 123, 2-[5-(2,3-dihydro-1-benzofuran-7-ylmethoxy)pyrazol-1-yl]pyridine-4-carboxylic acid] | < 100 nM | < 100 nM | 100 to 1000 nM
24 | CCc1cc(C#N)ccc1COc1ccnn1-c1cc(C(=O)O)ccn1 [Example 126, 2-[5-[(4-cyano-2-ethylphenyl)methoxy]pyrazol-1-yl]pyridine-4-carboxylic acid] | < 100 nM | < 100 nM | 100 to 1000 nM
25 | Cc1cc(F)ccc1COc1ccnn1-c1cc(C(=O)O)ccn1 [Example 128, 2-[5-[(4-fluoro-2-methylphenyl)methoxy]pyrazol-1-yl]pyridine-4-carboxylic acid] | < 100 nM | < 100 nM | 100 to 1000 nM
26 | CCc1cc(F)ccc1COc1ccnn1-c1cc(C(=O)O)ccn1 [Example 129, 2-[5-[(2-ethyl-4-fluorophenyl)methoxy]pyrazol-1-yl]pyridine-4-carboxylic acid] | < 100 nM | < 100 nM | 100 to 1000 nM
27 | Cc1ccc(COc2ccnn2-c2cc(C(=O)O)ccn2)c(F)c1 [Example 131, 2-[5-[(2-fluoro-4-methylphenyl)methoxy]pyrazol-1-yl]pyridine-4-carboxylic acid] | < 100 nM | < 100 nM | 100 to 1000 nM
28 | Cc1ccc(COc2ccnn2-c2cc(C(=O)O)ccn2)c(C#N)c1 [Example 134, 2-[5-[(2-cyano-4-methylphenyl)methoxy]pyrazol-1-yl]pyridine-4-carboxylic acid] | < 100 nM | < 100 nM | 100 to 1000 nM
29 | CCc1cc(C)ccc1COc1ccnn1-c1cc(C(=O)O)ccn1 [Example 135, 2-[5-[(2-ethyl-4-methylphenyl)methoxy]pyrazol-1-yl]pyridine-4-carboxylic acid] | 100 to 1000 nM | 100 to 1000 nM | 1000 to 10000 nM
30 | CC(Oc1cc(Cl)ccc1COc1ccnn1-c1cc(C(=O)O)ccn1)c1ccccc1 (stereo not drawn) [Example 136, 2-[5-[[4-chloro-2-(1-phenylethoxy)phenyl]methoxy]pyrazol-1-yl]pyridine-4-carboxylic acid] | 100 to 1000 nM | 100 to 1000 nM | 1000 to 10000 nM
31 | CC(Oc1cc(F)ccc1COc1ccnn1-c1cc(C(=O)O)ccn1)c1ccccc1 (stereo not drawn) [Example 137, 2-[5-[[4-fluoro-2-(1-phenylethoxy)phenyl]methoxy]pyrazol-1-yl]pyridine-4-carboxylic acid] | 100 to 1000 nM | 100 to 1000 nM | 1000 to 10000 nM
32 | O=C(O)c1ccnc(-n2nccc2OCc2ccc(Cl)c(OCc3ccc(F)cc3)c2)c1 [Example 138, 2-[5-[[4-chloro-3-[(4-fluorophenyl)methoxy]phenyl]methoxy]pyrazol-1-yl]pyridine-4-carboxylic acid] | < 100 nM | < 100 nM | 100 to 1000 nM
33 | O=C(O)c1ccnc(-n2nccc2OCc2ccc(Cl)c(OCC(F)(F)F)c2)c1 [Example 141, 2-[5-[[4-chloro-3-(2,2,2-trifluoroethoxy)phenyl]methoxy]pyrazol-1-yl]pyridine-4-carboxylic acid] | < 100 nM | < 100 nM | 100 to 1000 nM
34 | Cc1cc(Br)ccc1COc1ccnn1-c1cc(C(=O)O)ccn1 [Example 142, 2-[5-[(4-bromo-2-methylphenyl)methoxy]pyrazol-1-yl]pyridine-4-carboxylic acid] | 100 to 1000 nM | 100 to 1000 nM | 100 to 1000 nM
